Source: patent US20250295652A1, “Inhibitors of Molluscum Contagiosum Infection and Methods Using the Same” (priority 2021, published 2025)

tested on: VV; assay: microbe, parasite or virus in culture; type: cell-based, vaccinia virus; conditions: Orthopoxvirus vaccinia, BSC-1, read-out: VV EC50

Row | SMILES | EC50 [µM]
1 | Cc1c(C(N)=O)sc(N(C(=O)C2CCCc3ccccc32)C(=O)C2CCCc3ccccc32)c1C#N (stereo not shown) [Compound 47, 5-[Bis-(1,2,3,4-tetrahydro-naphthalene-1-carbonyl)-amino]-4-cyano-3-methyl-thiophene-2-carboxylic acid amide] | 20
2 | CCOC(=O)c1sc(NC(=O)C(CC)c2ccccc2)cc1C (stereo not shown) [Compound 72, ethyl 3-methyl-5-(2-phenylbutanamido)thiophene-2-carboxylate] | 19.1
3 | CC[C@@H](C(=O)Nc1sc(C(N)=O)c(C)c1C(=O)OC)c1ccccc1 [Compound 16, methyl (R)-5-carbamoyl-4-methyl-2-(2-phenylbutanamido)thiophene-3-carboxylate] | 16.4
4 | CCC(C(=O)Nc1sc(C(N)=O)c(C)c1C#N)c1ccc([N+](=O)[O-])cc1 (stereo not shown) [Compound 75, 5-(2-(4-Nitrophenyl)butanamido)-4-cyano-3-methylthiophene-2-carboxamide] | 35
5 | CCC(C(=O)Nc1cc(C)c(C(=O)OC)s1)c1ccccc1 (stereo not shown) [Compound 22, 3-Methyl-5-(2-phenyl-butyrylamino)-thiophene-2-carboxylic acid methyl ester] | 26.8
6 | CCC(C(=O)Nc1sc(C)c(C)c1C(=O)OC)c1ccccc1 (stereo not shown) [Compound 26, methyl 4,5-dimethyl-2-(2-phenylbutanamido)thiophene-3-carboxylate] | 45.3
7 | CCOC(=O)c1c(NC(=O)C(CC)c2ccccc2)sc(C(N)=O)c1C (stereo not shown) [Compound 8, ethyl 5-carbamoyl-4-methyl-2-(2-phenylbutanamido)thiophene-3-carboxylate] | 10.3
8 | CCC(C(=O)Nc1cc(C)ns1)c1ccccc1 (stereo not shown) [Compound 78, N-(3-methylisothiazol-5-yl)-2-phenylbutanamide] | 41.7
9 | CCC(C(=O)Nc1sc(C(=O)N(CC)CC)c(C)c1C(=O)OC)c1ccccc1 (stereo not shown) [Compound 24, methyl 5-(diethylcarbamoyl)-4-methyl-2-(2-phenylbutanamido)thiophene-3-carboxylate] | 16.4
10 | CCC(C(=O)Nc1sc(C(=O)OC)cc1C#N)c1ccccc1 (stereo not shown) [Compound 82, Methyl 5-(2-phenylbutanamido)-4-cyanothiophene-2-carboxylate] | 11
11 | CCC(C(=O)Nc1nc(-c2ccccc2)cs1)c1ccccc1 (stereo not shown) [Compound 76, 2-phenyl-N-(4-phenylthiazol-2-yl)butanamide] | 18.4
12 | CCC(C(=O)Nc1scc(C)c1C(=O)OC)c1ccccc1 (stereo not shown) [Compound 32, 4-Methyl-2-(2-phenyl-butyrylamino)-thiophene-3-carboxylic acid methyl ester] | 32.9
13 | CC[C@H](C(=O)Nc1sc(C(N)=O)c(C)c1C(=O)OC)c1ccccc1 [Compound 15, methyl (S)-5-carbamoyl-4-methyl-2-(2-phenylbutanamido)thiophene-3-carboxylate] | 17.9
14 | COC(=O)c1c(NC(=O)C(Cc2ccccc2)N2C(=O)c3ccccc3C2=O)sc(C(N)=O)c1C (stereo not shown) [Compound 33, 5-Carbamoyl-2-[2-(1,3-dioxo-1,3-dihydro-isoindol-2-yl)-3-phenyl-propionylamino]-4-methyl-thiophene-3-carboxylic acid methyl ester] | 43.6
15 | CCOC(=O)c1sc(NC(=O)C(CC)c2ccccc2)c(C(N)=O)c1C (stereo not shown) [Compound 19, ethyl 4-carbamoyl-3-methyl-5-(2-phenylbutanamido)thiophene-2-carboxylate] | 31.3
16 | CCC(C(=O)Nc1sncc1C#N)c1ccccc1 (stereo not shown) [Compound 90, N-(4-Cyano-isothiazol-5-yl)-2-phenyl-butyramide] | 21.8
17 | COC(=O)c1c(NC(=O)C2CCc3ccccc32)sc(C(N)=O)c1C (stereo not shown) [Compound 35, 5-Carbamoyl-2-[(indane-1-carbonyl)-amino]-4-methyl-thiophene-3-carboxylic acid methyl ester] | 20.4
18 | Cc1nsc(NC(=O)C2CCc3ccccc32)c1C#N (stereo not shown) [Compound 87, Indan-1-carboxylic acid (4-cyano-3-methyl-isothiazol-5-yl)-amide] | 17
19 | CCC(C(=O)Nc1ncc(C(=O)OC)s1)c1ccccc1 (stereo not shown) [Compound 77, methyl 2-(2-phenylbutanamido)thiazole-5-carboxylate] | 21.4
20 | COc1ccc(N2CCN(C(=O)Nc3snnc3C(=O)NCc3ccc(Cl)cc3)CC2)cc1 [Compound 86, N-(4-chlorobenzyl)-5-(4-(4-methoxyphenyl)piperazine-1-carboxamido)-1,2,3-thiadiazole-4-carboxamide] | 32.6
21 | CCC(C(=O)Nc1sccc1C(N)=O)c1ccccc1 (stereo not shown) [Compound 31, 2-(2-phenylbutanamido)thiophene-3-carboxamide] | 49.7
22 | Cc1c(C(N)=O)sc(NC(=O)C2CCc3cc(Cl)ccc32)c1C#N (stereo not shown) [Compound 50, 5-[(5-Chloro-indane-1-carbonyl)-amino]-4-cyano-3-methyl-thiophene-2-carboxylic acid amide] | 33
23 | CCOC(=O)c1c(NC(=O)C(CC)c2ccccc2)sc(C)c1CC (stereo not shown) [Compound 2, ethyl 4-ethyl-5-methyl-2-(2-phenylbutanamido)thiophene-3-carboxylate] | 36.6
24 | CCC(C(=O)Nc1snc(C)c1C(=O)OC)c1ccccc1 (stereo not shown) [Compound 89, 3-Methyl-5-(2-phenyl-butyrylamino)-isothiazole-4-carboxylic acid methyl ester] | 29.3
25 | CCC(C(=O)N(C(=O)C(CC)c1ccccc1)c1sc(C)c(C)c1C#N)c1ccccc1 (stereo not shown) [Compound 39, N-(3-Cyano-4,5-dimethyl-thiophen-2-yl)-2-phenyl-N-(2-phenyl-butyryl)-butyramide] | 11
26 | CCC(C(=O)Nc1sc(C(=O)N(CC)CC)c(C)c1C#N)c1ccccc1 (stereo not shown) [Compound 66, 4-cyano-N,N-diethyl-3-methyl-5-(2-phenylbutanamido)thiophene-2-carboxamide] | 42.2
27 | COc1ccc(CN(Cc2ccc(OC)cc2)C(Cc2ccccc2)C(=O)Nc2sc(C(N)=O)c(C)c2C#N)cc1 (stereo not shown) [Compound 57, 5-(2-{Bis[(4-methoxyphenyl)methyl]amino}-3-phenylpropanamido)-4-cyano-3-methylthiophene-2-carboxamide] | 20.8
28 | Cc1c(C(N)=O)sc(NC(=O)C2CCCC2)c1C#N [Compound 40, 4-cyano-5-(cyclopentanecarboxamido)-3-methylthiophene-2-carboxamide] | 47.4
29 | COC(=O)c1c(NC(=O)C2(c3ccccc3)CC2)sc(C(N)=O)c1C [Compound 36, 5-Carbamoyl-4-methyl-2-[(1-phenyl-cyclopropanecarbonyl)-amino]-thiophene-3-carboxylic acid methyl ester] | 14.3
30 | CCC(C(=O)Nc1sc(C(N)=O)c(C)c1C#N)c1ccccc1 (stereo not shown) [Compound 9, 4-cyano-3-methyl-5-(2-phenylbutanamido)thiophene-2-carboxamide] | 11.3

same assay, conditions: read-out: VV EC50

Row | SMILES | EC50 [µM]
31 | CC[C@@H](C(=O)Nc1sc(C(N)=O)c(C)c1C(=O)OC)c1ccccc1 [Compound 17, methyl (R)-5-carbamoyl-4-methyl-2-(2-phenylbutanamido)thiophene-3-carboxylate] | 26.8

tested on: mD4-VV surrogate virus; assay: microbe, parasite or virus in culture; type: cell-based, mD4/vaccinia hybrid virus; conditions: not given

Row | SMILES | % @ 25 uM (mD4) [% @ 25 uM]
32 | COC(=O)c1ccsc1NC(=O)N1CCN(c2ccccn2)CC1 [Compound 114, Methyl 2-(4-(pyridin-2-yl)piperazine-1-carboxamido)thiophene-3-carboxylate] | 32
33 | CCOC(=O)c1ncsc1NC(=O)C(CC)c1ccccc1 (stereo not shown) [Compound 165, Ethyl 5-(2-phenylbutanamido)thiazole-4-carboxylate] | 30.6
34 | CCC(C(=O)Nc1sc(C(N)=O)c(C)c1C(=O)OC)c1ccc(OC)cc1 (stereo not shown) [Compound 97, Methyl 2-(2-(4-methoxyphenyl)butanamido)-5-carbamoyl-4-methylthiophene-3-carboxylate] | 37

same assay, conditions: Hybrid virus, BSC-1, read-out: mD4 EC50

Row | SMILES | EC50 [µM]
35 | O=C(CCCc1ccccn1)Nc1snnc1C(=O)NCc1ccc(Cl)cc1 [Compound 175, 5-(4-(Pyridin-2-yl)butanamido)-N-(4-chlorobenzyl)-1,2,3-thiadiazole-4-carboxamide] | 15.5
36 | CCC(C(=O)Nc1sc(C(N)=O)c(C)c1C(=O)OC)c1cc(F)cc(F)c1 (stereo not shown) [Compound 195, Methyl 2-(2-(3,5-difluorophenyl)butanamido)-5-carbamoyl-4-methylthiophene-3-carboxylate] | 25.8
37 | CCC(C(=O)Nc1sc(C(=O)OC(C)(C)C)c(C)c1C(=O)OC)c1ccc(C(F)(F)F)cc1 (stereo not shown) [Compound 198, 2-tert-butyl 4-methyl 5-(2-(4-(trifluoromethyl)phenyl)butanamido)-3-methylthiophene-2,4-dicarboxylate] | > 50
38 | CCC(C(=O)Nc1snnc1C(=O)NCc1ccccc1)c1ccccc1 (stereo not shown) [Compound 135, 5-(2-Phenyl-butyrylamino)-[1,2,3]thiadiazole-4-carboxylic acid benzylamide] | 18.5
39 | CCC(C(=O)Nc1sc(C(N)=O)c(C)c1C(=O)OC)c1ccc(C(F)(F)F)cc1 (stereo not shown) [Compound 190, methyl 5-carbamoyl-4-methyl-2-(2-(4-(trifluoromethyl)phenyl)butanamido)thiophene-3-carboxylate] | 4.8
40 | CCC(C(=O)Nc1sc(C(=O)NC(C)c2ccncc2)c(C)c1C(=O)OC)c1ccc(F)cc1 (stereo not shown) [Compound 186, methyl 2-(2-(4-fluorophenyl)butanamido)-4-methyl-5-((1-(pyridin-4-yl)ethyl)carbamoyl)thiophene-3-carboxylate] | 20
41 | O=C(NCc1ccccc1)c1nnsc1NC(=O)N1CCN(c2ccccc2F)CC1 [Compound 169, 4-(2-Fluoro-phenyl)-piperazine-1-carboxylic acid (4-benzylcarbamoyl-[1,2,3]thiadiazol-5-yl)-amide] | 32.7
42 | CCC(C(=O)Nc1snnc1-c1ccccc1)c1ccccc1 (stereo not shown) [Compound 155, 2-Phenyl-N-(4-phenyl-[1,2,3]thiadiazol-5-yl)-butyramide] | 16.2
43 | CCC(C(=O)Nc1sc(C(=O)N2CCNCC2)c(C)c1C(=O)OC)c1ccc(F)cc1 (stereo not shown) [Compound 201, Methyl 2-[2-(4-fluorophenyl)butanamido]-4-methyl-5-(piperazine-1-carbonyl)thiophene-3-carboxylate] | > 25
